In ChEMBL document CHEMBL3525971 (Drug Metab Dispos, 2011):

Tests used:
[1] = Biliary excretion in castrated pig assessed as unchanged drug level treated with finasteride at 0.8 mg/kg administered as intrajejunal dose measured during 6 hrs sampling by UPLC-tandem mass spectrometry; assay type: ADME, organism-based, Sus scrofa, Bile; parameters: dose 0.8 mg/kg; settings: in vivo, other
[2] = Biliary excretion in castrated pig assessed as unchanged drug level treated with finasteride at 0.8 mg/kg administered as intrajejunal dose 20 mins after ketoconazole administration measured during 6 hrs sampling by UPLC-tandem mass spectrometry; assay type: ADME, organism-based, Sus scrofa, Bile; parameters: dose 0.8 mg/kg; settings: in vivo, other
[3] = Biliary excretion in castrated pig assessed as unchanged drug level treated with finasteride at 0.2 mg/kg, iv measured during 6 hrs sampling by UPLC-tandem mass spectrometry; assay type: ADME, organism-based, Sus scrofa, Bile; parameters: dose 0.2 mg/kg, route intravenous; settings: in vivo
[4] = Apparent biliary clearance in castrated pig treated with finasteride at 0.8 mg/kg administered as intrajejunal dose by UPLC-tandem mass spectrometry; assay type: ADME, organism-based, Sus scrofa, Bile; parameters: dose 0.8 mg/kg; settings: in vivo
[5] = Apparent biliary clearance in castrated pig treated with finasteride at 0.8 mg/kg administered as intrajejunal dose 20 mins after ketoconazole administration by UPLC-tandem mass spectrometry; assay type: ADME, organism-based, Sus scrofa, Bile; parameters: dose 0.8 mg/kg; settings: in vivo
[6] = Apparent biliary clearance in castrated pig treated with finasteride at 0.2 mg/kg, iv by UPLC-tandem mass spectrometry; assay type: ADME, organism-based, Sus scrofa, Bile; parameters: dose 0.2 mg/kg, route intravenous; settings: in vivo
[7] = Drug excretion in castrated pig urine assessed as unchanged drug level treated with finasteride at 0.8 mg/kg administered as intrajejunal dose measured during 6 hrs sampling by UPLC-tandem mass spectrometry; assay type: ADME, organism-based, Sus scrofa; parameters: dose 0.8 mg/kg; settings: in vivo, other
[8] = Drug excretion in castrated pig urine assessed as unchanged drug level treated with finasteride at 0.8 mg/kg administered as intrajejunal dose 20 mins after ketoconazole administration measured during 6 hrs sampling by UPLC-tandem mass spectrometry; assay type: ADME, organism-based, Sus scrofa; parameters: dose 0.8 mg/kg; settings: in vivo, other
[9] = Drug excretion in castrated pig urine assessed as unchanged drug level treated with finasteride at 0.2 mg/kg, iv measured during 6 hrs sampling by UPLC-tandem mass spectrometry; assay type: ADME, organism-based, Sus scrofa; parameters: dose 0.2 mg/kg, route intravenous; settings: in vivo
[10] = Cmax in castrated pig plasma withdrawn from portal vein at 10 mg/kg dosed via intrajejunal route by HPLC-UV; settings: male
[11] = Tmax in castrated pig plasma withdrawn from portal vein at 10 mg/kg dosed via intrajejunal route by HPLC-UV; settings: male
[12] = Cmax in castrated pig plasma withdrawn from femoral vein at 10 mg/kg dosed via intrajejunal route by HPLC-UV; settings: male
[13] = Tmax in castrated pig plasma withdrawn from femoral vein at 10 mg/kg dosed via intrajejunal route by HPLC-UV; settings: male
[14] = Half life in castrated pig plasma withdrawn from portal vein at 10 mg/kg dosed via intrajejunal route by HPLC-UV; settings: male
[15] = Half life in castrated pig plasma withdrawn from femoral vein at 10 mg/kg dosed via intrajejunal route by HPLC-UV; settings: male
[16] = AUC (0 to 6 hrs) in castrated pig plasma withdrawn from portal vein dosed via intrajejunal route by UPLC-tandem mass spectrometry; settings: male
[17] = AUC (0 to 6 hrs) in castrated pig plasma withdrawn from femoral vein dosed via intrajejunal route by UPLC-tandem mass spectrometry; settings: male

CL(app) [4] | CL(app) [5] | CL(app) [6] | SMILES | Ae [1] | Ae [2] | Ae [3] | Ae [7] | Ae [8] | Ae [9] | Cmax [10] | Tmax [11] | Cmax [12] | Tmax [13] | half-life [14] | half-life [15] | AUC(0-t) at 6 h [16] | AUC(0-t) at 6 h [17]
2.4 mL/min/kg | 1.2 mL/min/kg | 3.6 mL/min/kg | CC(C)(NC(=O)[C@H]1CC[C@H]2[C@@H]3CC[C@H]4NC(=O)C=C[C@]4(C)[C@H]3CC[C@]12C)C(=O)O | 1.2 µmol | 0.7 µmol | 0.6 µmol | 8.5 µmol | 3.4 µmol | 1.2 µmol |  |  |  |  |  |  |  | 
 |  |  | CC(=O)N1CCN(c2ccc(OCC3COC(Cn4ccnc4)(c4ccc(Cl)cc4Cl)O3)cc2)CC1 (configuration not stated) [KETOCONAZOLE] |  |  |  |  |  |  | 9 µM | 42 min | 3000 nM | 1.8 h | 186 min | 246 min | 22 µM·h | 13 µM·h
